Consider 3 compounds from US20240335425A1, “PHARMACEUTICAL COMPOSITIONS OF ALPHA-2-ADRENERGIC RECEPTOR AGONISTS AND THEIR USE FOR IMPROVING VISION” (Allergan, Inc., priority 2020, published 2024).

The target of data set [1] is T1, human alpha-2A receptor (Homo sapiens, UniProt P08913).
T1 construct: expressed in transfected cells
T1 sequence (P08913 1-465): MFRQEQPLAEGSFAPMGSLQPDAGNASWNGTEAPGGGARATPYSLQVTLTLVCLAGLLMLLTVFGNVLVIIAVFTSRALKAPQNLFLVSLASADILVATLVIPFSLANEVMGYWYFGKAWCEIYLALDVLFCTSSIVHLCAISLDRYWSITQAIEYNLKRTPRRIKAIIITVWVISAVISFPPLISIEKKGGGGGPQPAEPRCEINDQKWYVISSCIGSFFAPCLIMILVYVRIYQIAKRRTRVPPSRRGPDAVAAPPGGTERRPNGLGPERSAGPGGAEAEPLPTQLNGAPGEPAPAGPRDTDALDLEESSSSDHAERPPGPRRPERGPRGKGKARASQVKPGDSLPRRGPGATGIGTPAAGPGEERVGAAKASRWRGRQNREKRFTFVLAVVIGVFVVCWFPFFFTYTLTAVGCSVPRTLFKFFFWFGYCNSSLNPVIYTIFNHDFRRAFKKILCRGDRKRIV
Description: FLIPR calcium assay, HEK293 cells with human alpha-2A receptor coupled via chimeric Gqi5. Type of data set: cell-based. The procedure:
(§1) An in vitro FLIPR (fluorometric image plate reader) assay was performed on several compounds, including the compound of Formula I (entry 1 in Table 1).
Specifically, four HEK293 stable cell lines were used in the FLIPR assay. The HEK293 cell line which stably expressed the bovine alpha adrenergic 1A receptor was used to characterize the alpha1 pharmacology. The alpha-2 adrenergic receptor family is a G coupled G-protein receptor. Therefore, in order to use these cell lines in the calcium based FLIPR assay, the chimeric G-protein Gqi5 was used to force the coupling of the human alpha-2A, alpha-2B, and alpha-2C receptors to the calcium pathway. Cells were plated, in triplicate, in poly-D-lysine coated 384-well plates at 25,000 cells per well and grown overnight in DMEM supplemented with 10% fetal bovine serum. For FLIPR evaluation, cells were washed twice with HBSS/HEPES buffer (1× Hanks Buffered Salt Solution, 20 mM HEPES, pH 7.4) prior to the addition of Fluo-4-AM (4 uM Fluo-4-AM, 0.04% pluronic acid in HBSS/HEPES buffer), a calcium-sensitive dye. Cells were loaded with dye for 40 minutes at 37° C., and then washed 4 times with HBSS/HEPES buffer to remove the excess dye. The test compounds were profiled at concentrations between 0.64 nM and 10,000 nM using a […] dilution factor.
(§2) The receptor activation was initiated by the addition of the appropriate dilutions of compounds and the transient calcium signal was captured. The peak height of the calcium curve was determined and utilized for calculation of EC50 and relative efficacy values using Activity Base software. EC50 was calculated using a 4 Parameter Logistic Equation: y=A+((B−A)/(1+((C/x)^D))) where A and B represents the bottom and top plateau of the curve; C represents the EC50 value; D represents the slope factor; and x and y represent the original x (drug concentration) and y (fluorescence signal, RFU) values.

Data set [2] concerns Dutch Belted rabbits. Description: In vivo rabbit miosis model (pupil diameter after single topical dose). The following applies: for miotic efficacy compared with other alpha adrenergic receptor agonists: topical dose, low-light conditions (2-10 Lux); for animals with greater than 2.5 mm reduction in pupil size from baseline: 0.1% w:v, scotopic (<10 lux), n=6. As for the experimental part:
Female Dutch Belted rabbits (Covance, Princeton, New Jersey) weighing between 2-4 kg were used for these studies. […] For topical dosing, eye drops (volume=35 μl) were instilled into the lower conjunctival sac of the test eye.
Pupil diameter was measured in both the treated and untreated eye with an Optistick to the nearest 0.5 mm. […]

Data set [3] concerns the target T2, bovine alpha adrenergic 1A receptor (Bos taurus, UniProt P18130).
T2 construct: expressed in transfected cells
T2 sequence (P18130 1-466): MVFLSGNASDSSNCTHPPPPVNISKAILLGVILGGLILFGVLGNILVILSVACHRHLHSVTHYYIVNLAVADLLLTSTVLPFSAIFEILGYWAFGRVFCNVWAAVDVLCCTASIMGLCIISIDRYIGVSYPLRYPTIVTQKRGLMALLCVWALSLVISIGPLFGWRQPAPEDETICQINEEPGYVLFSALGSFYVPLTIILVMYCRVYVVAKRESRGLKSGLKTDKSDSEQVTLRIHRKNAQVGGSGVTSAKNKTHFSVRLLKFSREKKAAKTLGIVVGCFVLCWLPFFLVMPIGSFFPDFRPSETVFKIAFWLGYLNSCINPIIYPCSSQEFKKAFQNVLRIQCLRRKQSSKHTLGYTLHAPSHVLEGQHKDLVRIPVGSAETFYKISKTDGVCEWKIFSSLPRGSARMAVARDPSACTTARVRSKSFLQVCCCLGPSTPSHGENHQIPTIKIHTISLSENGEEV
Nature of the data set: FLIPR calcium assay, HEK293 cells stably expressing bovine alpha 1A receptor. Format: cell-based. The settings on record: HEK293 stable cell line, peak calcium signal; read-out: bovine alpha1A EC50 (nm). As for the experimental part:
as §1
Specifically, four HEK293 stable cell lines were used in the FLIPR assay. The HEK293 cell line which stably expressed the bovine alpha adrenergic 1A receptor was used to characterize the alpha1 pharmacology. The alpha-2 adrenergic receptor family is a G coupled G-protein receptor. Therefore, in order to use these cell lines in the calcium based FLIPR assay, the chimeric G-protein Gqi5 was used to force the coupling of the human alpha-2A, alpha-2B, and alpha-2C receptors to the calcium pathway. […]
as §2

How the values of data set [4] were obtained: Aliquots of the PBS only curve were quenched at time zero to be used as stability controls and calibration standards. Following centrifugation, samples were analyzed by LC-MS/MS bioanalysis. Back-calculated concentrations using the assay PBS curve were used for binding and stability calculations.
Data set [5] has as its system presbyopic patients. The following applies: different lighting conditions; cited from earlier work.

Like-named read-outs stand apart in the source and are kept apart here.

A word on the EC50: it is the midpoint of the concentration-response curve. `CCc1c(N=C2NCCN2)ccc2[nH]cnc12` [Compound 2, reference compound]: in data set [1], the EC50 turned out to be 0.011 µM. In addition, the “miotic efficacy compared with other alpha adrenergic receptor agonists” value in data set [2] is on record as “much less than brimonidine”.

On to `Brc1c(N=C2NCCN2)ccc2[nH]cnc12` [Compound 3, reference compound], for which the EC50 in data set [1] (HEK293 stable cell line with Gqi5, peak calcium signal, read-out: human alpha2A EC50 (nm)) is 0.001 µM. Further, in data set [2], the “miotic efficacy compared with other alpha adrenergic receptor agonists” value was “much less than brimonidine”.

In the case of `Brc1c(NC2=NCCN2)ccc2nccnc12` [Compound 4, brimonidine, reference compound], the EC50 in data set [3] turned out to be 1.2 µM. Further, the figures for the “animals with greater than 2.5 mm reduction in pupil size from baseline” value in data set [2] (after 6 hours) and in data set [2] (half hour after dosing) were “virtually none of the animals” and “much less than half of the animals”, respectively. In addition, in data set [4], the “melanin binding (in words)” value was “much more significant binding”. Further, in data set [5], the “average pupil size after brimonidine” value is listed as 3.4 mm.
